How the values were obtained:
murine ESCs = test: In vitro decidualization of primary murine ESCs (Prp mRNA); type: cell-based, mouse; conditions: 3 days in vitro culture
Text: In order to confirm that this is not a side effect of ESC immortalization with telomerase overexpression in this human cell line, the effect of DHEA on decidualization of primary ESC cultures from mouse and human uteri was also investigated. Murine ESCs were isolated from the gravid uterus at 4 days post coitus and cultured in vitro for 3 days to induce decidualization as described in the Methods. […] The human primary ESCs were isolated from uteri following hysterectomy for benign disease as outlined in the Methods and cultured in decidualization media for 9 days.
For in vitro decidualization of ESCs, female mice were sacrificed at 4dpc. Pregnancy was confirmed by flushing dissected uterine horns and ostia with HBSS and observing for presence of blastocysts. Uteri confirmed for pregnancy were cut into 1 mm^3 pieces and incubated in Dulbecco's modified Eagle's Medium:F12 medium (DMEM:F12) without phenol red supplemented with 2 g/liter Collagenase Type I (Gibco) for 60-90 min at 37° C. Tissues were vortexed every 15 min during incubation. Following incubation, the solution was passed through a 40 μm sieve (BD Falcon) and centrifuged at 1100 rpm for 5 min. […]

[1] = Artificially induced deciduoma in ovariectomized mice; type: in vivo, mouse; conditions: female, FVB/NJ, mouse, serum, subcutaneous, 2 mg/100 g of body weight; measured on day +5; DHEA-treated group; read-out: Serum DHEA levels
Description: (§1) This induced deciduoma model allowed the study of the effect of increased DHEA on implantation independently of embryo development and ovarian function. Female mice 6-8 weeks of age were ovariectomized and rested for 2 weeks. […] At day 2 before induction, the experimental mice also began receiving DHEA at 2 mg/100 g of body weight. The control mice received no DHEA. At day 0, one uterine horn in each animal was subjected to a physical stimulus, 100 μL sesame seed oil injection, to induce a deciduoma. The second horn was left as the unstimulated internal control for each mouse. Day 0 in this case is equivalent to the day of embryo implantation in a physiological mouse pregnancy, which is 4 days post coitus. Five days after the oil injection, uterine horns were dissected out. First the gross anatomies of the uteri were assessed. Representative tissues from two mice in each treatment group are shown (FIG. 7B). […] Protein was isolated from all uterine horns in order to measure the expression of a well-established decidualization protein marker, Bmp2. […] Bmp2 expression was almost undetectable in the unstimulated uterine horns. […] In the same line of experiments, the serum hormone levels were also measured to confirm that findings were strictly the result of increased levels of DHEA.
(§2) Decidualization in vivo under chronically elevated levels of DHEA was also tested. The ovariectomy mouse model described above was used with the following changes: DHEA was administered orally (0.6% supplementation in regular chow diet) starting on the day of ovariectomy. The mice were on the diet for 2 weeks prior to the beginning of the hormone regiments described in FIG. 7A. In FIG. 8A, representative uterine horns are shown from control mice (receiving regular chow) and the treatment mice on 0.6% DHEA diet. […] A quantitative analysis of the decidual reaction in shown in FIG. 8B, where the mass of the uterine horns is shown. Lastly, it should be noted that ovariectomised mice, similar to post-menopausal women, tend to have increased body fat percentage.
(§3) To generate deciduomas 7-8 wk-old female FVB/NJ mice were used and treated as described previously. A time line of the hormone administrations is presented in FIG. 7a, adapted from Herington et al. Briefly, mice were ovariectomized and allowed 2 weeks for recovery. They were then injected with 100 ng 17b-estradiol (E2) (Sigma) for three days, rested two days, and then injected with 10 ng E2/1 μg Progesterone (P4, Sigma) for three days. […] Immediately following the last of the above sensitization injections, the right uterine horn received an intra-luminal injection of 100 μL of sunflower seed oil. Mice continued to receive 1 μg P4 subcutaneously for up to 4 days. Mice receiving the DHEA treatment received […] starting on the day the E2/P4 injections were begun and continued for the 7 days following, until mice were sacrificed. On the day following the last injection, serum samples were collected, the mice were sacrificed and uterine horns dissected out. Serum DHEA, E2 and P4 levels were analyzed by ELISA assays (Alpco Immunoassays).

FVB/NJ mice [2] = test: as above; type: in vivo, mouse
Description: as §1, §2, §3

FVB/NJ mice [3] = test: Ovulation rate after PMSG and hCG in DHEA-fed mice; type: in vivo, mouse
Text: Female FVB/NJ mice were obtained from Jackson Laboratories (Bar Harbor, Me., USA). Regular rodent chow was supplemented with DHEA at 0.01%, 0.1% and 0.6% w/w. Three-week-old mice had access to food and water ad libitum. Mice were fed control or DHEA-supplemented chow for two weeks. The Animal Studies Committee at Washington University School of Medicine reviewed and approved all animal experiments. Animals were maintained according to the Guide for the Care and Use of Laboratory Animals provided by the Institute for Laboratory Animal Research.
(§4) COCs were collected following superovulation with PMSG. Ovaries were removed and placed in M2 media (Sigma, St. Louis, Mo., USA). COCs were obtained by rupture of antral follicles with a syringe and needle. To collect denuded germinal vesicle (GV) oocytes, the cumulus cells were removed by gentle pipetting. The oviducts were removed from PMSG- and hCG-primed mice. The ampulla of the oviduct was punctured to release the clutch of ovulated oocytes 24 hr after hCG.

denuded GV oocytes = test: ATP and citrate levels in single denuded GV oocytes of DHEA-fed mice; type: in vivo, mouse
Text: as §4
(§5) Denuded oocytes or cultured blastocysts were frozen on a glass slide with liquid nitrogen and dried overnight at −35° C. under vacuum. Individual oocytes or blastocysts were extracted in nanoliter volume under oil. Assays were designed to measure ATP, citrate and G6PDH by linking with NAD/NADH or NADP/NADPH which are enzymatically amplified in a cycling reaction allowing products to be measured by fluorometry.

G6PDH = molecular target: T1, G6PDH (Mus musculus, UniProt Q00612); test: G6PDH enzyme activity in single oocytes of DHEA-fed mice; type: in vivo
T1 construct: Individual oocytes or blastocysts were extracted in nanoliter volume under oil; from tissue; host or cells: denuded germinal vesicle oocytes of mice
Text: as §4, §5

T1 sequence (Q00612 whole entry): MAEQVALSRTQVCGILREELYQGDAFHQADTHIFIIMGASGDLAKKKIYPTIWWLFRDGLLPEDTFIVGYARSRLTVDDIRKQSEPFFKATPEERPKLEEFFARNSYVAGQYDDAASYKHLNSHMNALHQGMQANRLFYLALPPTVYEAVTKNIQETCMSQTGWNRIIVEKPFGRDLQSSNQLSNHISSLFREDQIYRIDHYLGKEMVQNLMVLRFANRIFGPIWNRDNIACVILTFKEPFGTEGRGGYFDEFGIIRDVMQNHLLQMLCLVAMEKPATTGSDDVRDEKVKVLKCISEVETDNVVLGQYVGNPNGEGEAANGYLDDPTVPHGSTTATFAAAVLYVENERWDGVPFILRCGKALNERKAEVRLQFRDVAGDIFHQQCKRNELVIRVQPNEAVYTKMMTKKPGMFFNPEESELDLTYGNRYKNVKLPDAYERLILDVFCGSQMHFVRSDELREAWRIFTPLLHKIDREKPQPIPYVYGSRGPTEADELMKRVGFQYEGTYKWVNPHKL

C[C@]12CC[C@H](O)CC1=CC[C@@H]1[C@@H]2CC[C@]2(C)C(=O)CC[C@@H]12 [DHEA, dehydroepiandrosterone]
Prp mRNA expression (murine ESCs): decreased upon addition of DHEA in a concentration-dependent manner | concentration at 5 day (after oil injection on day 0) [1]: 32.6 ng/mL | Deciduoma formation under chronic DHEA (FVB/NJ mice [2]; 0.6% DHEA in chow, oral, from day of ovariectomy): no difference between the stimulated and unstimulated uterine horns | Decrease in Bmp2 protein induction in deciduomas vs control mice (Western blot) (FVB/NJ mice [2]; DHEA 2 mg/100 g of body weight): 3 fold | Decrease in the decidual response by uterine mass vs controls (FVB/NJ mice [2]; DHEA 2 mg/100 g of body weight): ~3 fold | Morphology of uterine cross sections of stimulated horns (FVB/NJ mice [2]; DHEA 2 mg/100 g of body weight): no decidual cells | Gross deciduoma formation along the stimulated uterine horn (FVB/NJ mice [2]; DHEA 2 mg/100 g of body weight from day 2 before induction, 5 days after oil injection): weak, if any, deciduoma formation | Number of ovulated oocytes (FVB/NJ mice [3]; 0.01% DHEA diet): 10.8±2.8 | Number of ovulated oocytes (FVB/NJ mice [3]; 0.1% DHEA diet): 15±1.9 | Number of ovulated oocytes (FVB/NJ mice [3]; 0.6% DHEA diet): 7.1±1.4 | Citrate, of control (denuded GV oocytes; 0.01% DHEA group): 90% | Citrate compared to control (denuded GV oocytes; 0.1% DHEA group): 83% | G6PDH activity (G6PDH; 0.01% DHEA and 0.1% DHEA groups): decreased | G6PDH activity, of normal (G6PDH; 0.1% DHEA diet): 87%

Reference: patent publication US9381193B2, “Contraceptive methods and compositions” (WASHINGTON UNIVERSITY, priority 2011, dated 2016)
